According to patent US20240425479A1, “HALO-SUBSTITUTED AMINO AZA-HETEROARYL COMPOUNDS AS INHIBITORS OF THE HAEMATOPOIETIC PROGENITOR KINASE 1 (HPK1)” (priority 2021, published 2024):

What follows are molecules tested against T1, Recombinant (1-346) HPK1 (h) (Homo sapiens, UniProt Q92918) (assay: HPK1 human STE kinase enzymatic radiometric assay). Details: read-out: HPK1 IC50 nM Range.
T1 construct: Recombinant (1-346) HPK1 (h) is incubated with 8 mM MOPS pH 7.0
T1 sequence (Q92918 1-346): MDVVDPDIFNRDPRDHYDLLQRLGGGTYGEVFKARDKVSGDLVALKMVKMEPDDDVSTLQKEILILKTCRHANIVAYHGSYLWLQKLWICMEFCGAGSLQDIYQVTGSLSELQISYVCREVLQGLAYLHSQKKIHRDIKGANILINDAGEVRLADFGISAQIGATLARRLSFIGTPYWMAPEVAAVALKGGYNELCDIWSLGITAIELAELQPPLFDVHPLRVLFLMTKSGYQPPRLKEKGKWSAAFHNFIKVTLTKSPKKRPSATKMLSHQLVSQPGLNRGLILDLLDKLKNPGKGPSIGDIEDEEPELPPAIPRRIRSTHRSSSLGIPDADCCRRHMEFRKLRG
Format: biochemical
Outline: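 Recombinant HPK1 (1-346) incubated 40 min at RT with 0.33 mg/mL myelin basic protein and [gamma-33P]-ATP in 8 mM MOPS pH 7.0, 0.2 mM EDTA, 10 mM Mg acetate; reaction started with Mg/ATP. Stopped with 0.5% phosphoric acid, spotted on P30 filtermat, washed, scintillation counted. Compounds tested as 9-point 3-fold dilutions.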

IC50, 0.1 to 10 nM:
CO[C@@H]1CCN(Cc2cc(-c3nc(-c4ccc5c(c4)CCNC5=O)c(N)nc3F)ccc2N2CCOCC2)C1 [Example I-151, (R)-6-(3-amino-5-fluoro-6-(3-((3-methoxypyrrolidin-1-yl)methyl)-4-morpholinophenyl)pyrazin-2-yl)-3,4-dihydroisoquinolin-1(2H)-one]
CO[C@@H]1CCN(Cc2cc(-c3nc(-c4cc5c(cc4F)C(=O)NCC5)c(N)nc3F)ccc2N2CCOCC2)C1 [Example I-152, (R)-6-(3-amino-5-fluoro-6-(3-((3-methoxypyrrolidin-1-yl)methyl)-4-morpholinophenyl)pyrazin-2-yl)-7-fluoro-3,4-dihydroisoquinolin-1(2H)-one]
CN(C)Cc1cc(-c2nc(-c3ccc4c(=O)[nH]cc(Cl)c4c3)c(N)nc2F)ccc1N1CCOCC1 [Example I-153, 6-(3-amino-6-(3-((dimethylamino)methyl)-4-morpholinophenyl)-5-fluoropyrazin-2-yl)-4-chloroisoquinolin-1(2H)-one]
CO[C@@H]1CCN(Cc2cc(-c3nc(-c4cc(F)c5c(c4)CCNC5=O)c(N)nc3F)ccc2N2CCOCC2)C1 [Example I-155, (R)-6-(3-amino-5-fluoro-6-(3-((3-methoxypyrrolidin-1-yl)methyl)-4-morpholinophenyl)pyrazin-2-yl)-8-fluoro-3,4-dihydroisoquinolin-1(2H)-one]
CO[C@H]1CCN(Cc2cc(-c3nc(-c4ccc5c(c4)CCNC5=O)c(N)nc3F)ccc2N2CCOCC2)C1 [Example I-156, (S)-6-(3-amino-5-fluoro-6-(3-((3-methoxypyrrolidin-1-yl)methyl)-4-morpholinophenyl)pyrazin-2-yl)-3,4-dihydroisoquinolin-1(2H)-one]
CO[C@H]1CCN(Cc2cc(-c3nc(-c4cc5c(cc4F)C(=O)NCC5)c(N)nc3F)ccc2N2CCOCC2)C1 [Example I-157, (S)-6-(3-amino-5-fluoro-6-(3-((3-methoxypyrrolidin-1-yl)methyl)-4-morpholinophenyl)pyrazin-2-yl)-7-fluoro-3,4-dihydroisoquinolin-1(2H)-one]
CO[C@H]1CCN(Cc2cc(-c3nc(-c4cc(F)c5c(c4)CCNC5=O)c(N)nc3F)ccc2N2CCOCC2)C1 [Example I-158, (S)-6-(3-amino-5-fluoro-6-(3-((3-methoxypyrrolidin-1-yl)methyl)-4-morpholinophenyl)pyrazin-2-yl)-8-fluoro-3,4-dihydroisoquinolin-1(2H)-one]
Cc1cc2cc(-c3nc(-c4ccc(N5CCN(CCCC(F)F)CC5)cc4)c(F)nc3N)cc(F)c2c(=O)[nH]1 [Example I-159, 6-(3-amino-6-(4-(4-(4,4-difluorobutyl)piperazin-1-yl)phenyl)-5-fluoropyrazin-2-yl)-8-fluoro-3-methylisoquinolin-1(2H)-one]
COCCN(C)Cc1cc(-c2nc(-c3ccc4c(c3)CCNC4=O)c(N)nc2F)ccc1N1CCOCC1 [Example I-160, 6-(3-amino-5-fluoro-6-(3-(((2-methoxyethyl)(methyl)amino)methyl)-4-morpholinophenyl)pyrazin-2-yl)-3,4-dihydroisoquinolin-1(2H)-one]
COCCN(C)Cc1cc(-c2nc(-c3cc4c(cc3F)C(=O)NCC4)c(N)nc2F)ccc1N1CCOCC1 [Example I-161, 6-(3-amino-5-fluoro-6-(3-(((2-methoxyethyl)(methyl)amino)methyl)-4-morpholinophenyl)pyrazin-2-yl)-7-fluoro-3,4-dihydroisoquinolin-1(2H)-one]
COCCN(C)Cc1cc(-c2nc(-c3cc(F)c4c(c3)CCNC4=O)c(N)nc2F)ccc1N1CCOCC1 [Example I-162, 6-(3-amino-5-fluoro-6-(3-(((2-methoxyethyl)(methyl)amino)methyl)-4-morpholinophenyl)pyrazin-2-yl)-8-fluoro-3,4-dihydroisoquinolin-1(2H)-one]
CCN(C)Cc1cc(-c2nc(-c3ccc4c(c3)CCNC4=O)c(N)nc2F)ccc1C1CCOCC1 [Example I-163, 6-(3-amino-6-(3-((ethyl(methyl)amino)methyl)-4-(tetrahydro-2H-pyran-4-yl)phenyl)-5-fluoropyrazin-2-yl)-3,4-dihydroisoquinolin-1(2H)-one]
Cc1c[nH]c(=O)c2c(F)cc(-c3nc(-c4ccc(N5CCN(C(C)C)CC5)cc4)c(F)nc3N)cc12 [Example I-166, 6-(3-amino-5-fluoro-6-(4-(4-isopropylpiperazin-1-yl)phenyl)pyrazin-2-yl)-8-fluoro-4-methylisoquinolin-1(2H)-one]
Cc1c[nH]c(=O)c2c(F)cc(-c3nc(-c4ccc(C5CCOCC5)c(CN(C)C)c4)c(F)nc3N)cc12 [Example I-167, 6-(3-amino-6-(3-((dimethylamino)methyl)-4-(tetrahydro-2H-pyran-4-yl)phenyl)-5-fluoropyrazin-2-yl)-8-fluoro-4-methylisoquinolin-1(2H)-one]
Cc1[nH]c(=O)c2cc(F)c(-c3nc(-c4ccc(N5CCN(C(C)C)CC5)cc4)c(F)nc3N)cc2c1F [Example I-168, 6-(3-amino-5-fluoro-6-(4-(4-isopropylpiperazin-1-yl)phenyl)pyrazin-2-yl)-4,7-difluoro-3-methylisoquinolin-1(2H)-one]
Nc1nc(F)c(-c2ccc(C3CCOCC3)c(CN3CCC3)c2)nc1-c1ccc2c(c1)CCNC2=O [Example I-169, 6-(3-amino-6-(3-(azetidin-1-ylmethyl)-4-(tetrahydro-2H-pyran-4-yl)phenyl)-5-fluoropyrazin-2-yl)-3,4-dihydroisoquinolin-1(2H)-one]
COCCN(C)Cc1cc(-c2nc(-c3ccc4c(c3)CCNC4=O)c(N)nc2F)ccc1C1CCOCC1 [Example I-174, 6-(3-amino-5-fluoro-6-(3-(((2-methoxyethyl)(methyl)amino)methyl)-4-(tetrahydro-2H-pyran-4-yl)phenyl)pyrazin-2-yl)-3,4-dihydroisoquinolin-1(2H)-one]
COCCN(C)Cc1cc(-c2nc(-c3cc4c(cc3F)C(=O)NCC4)c(N)nc2F)ccc1C1CCOCC1 [Example I-175, 6-(3-amino-5-fluoro-6-(3-(((2-methoxyethyl)(methyl)amino)methyl)-4-(tetrahydro-2H-pyran-4-yl)phenyl)pyrazin-2-yl)-7-fluoro-3,4-dihydroisoquinolin-1(2H)-one]
COCCN(C)Cc1cc(-c2nc(-c3cc(F)c4c(c3)CCNC4=O)c(N)nc2F)ccc1C1CCOCC1 [Example I-176, 6-(3-amino-5-fluoro-6-(3-(((2-methoxyethyl)(methyl)amino)methyl)-4-(tetrahydro-2H-pyran-4-yl)phenyl)pyrazin-2-yl)-8-fluoro-3,4-dihydroisoquinolin-1(2H)-one]
C[C@@H]1CN(c2ccc(-c3nc(-c4cc(F)c5c(c4)CCNC5=O)c(N)nc3F)cc2CN(C)C)CCO1 [Example I-177, (R)-6-(3-amino-6-(3-((dimethylamino)methyl)-4-(2-methylmorpholino)phenyl)-5-fluoropyrazin-2-yl)-8-fluoro-3,4-dihydroisoquinolin-1(2H)-one]
CN(C)Cc1cc(-c2nc(-c3ccc4c(c3)CCNC4=O)c(N)nc2F)ccc1OCC1CCOCC1 [Example I-178, 6-(3-amino-6-(3-((dimethylamino)methyl)-4-((tetrahydro-2H-pyran-4-yl)methoxy)phenyl)-5-fluoropyrazin-2-yl)-3,4-dihydroisoquinolin-1(2H)-one]
CN(C)Cc1cc(-c2nc(-c3cc4c(cc3F)C(=O)NCC4)c(N)nc2F)ccc1OCC1CCOCC1 [Example I-179, 6-(3-amino-6-(3-((dimethylamino)methyl)-4-((tetrahydro-2H-pyran-4-yl)methoxy)phenyl)-5-fluoropyrazin-2-yl)-7-fluoro-3,4-dihydroisoquinolin-1(2H)-one]
CN(C)Cc1cc(-c2nc(-c3cc(F)c4c(c3)CCNC4=O)c(N)nc2F)ccc1OCC1CCOCC1 [Example I-180, 6-(3-amino-6-(3-((dimethylamino)methyl)-4-((tetrahydro-2H-pyran-4-yl)methoxy)phenyl)-5-fluoropyrazin-2-yl)-8-fluoro-3,4-dihydroisoquinolin-1(2H)-one]
Cc1c[nH]c(=O)c2ccc(-c3nc(-c4ccc(C5CCOCC5)cc4)c(F)nc3N)cc12 [Example I-181, 6-(3-amino-5-fluoro-6-(4-(tetrahydro-2H-pyran-4-yl)phenyl)pyrazin-2-yl)-4-methylisoquinolin-1(2H)-one]
Cc1cc2cc(-c3nc(-c4ccc(N5CCN(C(C)C)CC5)cc4)c(F)nc3N)c(F)cc2c(=O)[nH]1 [Example I-182, 6-(3-amino-5-fluoro-6-(4-(4-isopropylpiperazin-1-yl)phenyl)pyrazin-2-yl)-7-fluoro-3-methylisoquinolin-1(2H)-one]
Cc1cc2cc(-c3nc(-c4ccc(N5CCOCC5)c(CN(C)C)c4)c(F)nc3N)c(F)cc2c(=O)[nH]1 [Example I-183, 6-(3-amino-6-(3-((dimethylamino)methyl)-4-morpholinophenyl)-5-fluoropyrazin-2-yl)-7-fluoro-3-methylisoquinolin-1(2H)-one]
